Test results taken from US20240150377A1, “MODULATORS OF CYSTIC FIBROSIS TRANSMEMBRANE CONDUCTANCE REGULATOR” (VERTEX PHARMACEUTICALS INCORPORATED, priority 2020, published 2024).
Read-outs that look alike come from different tables or passages of the source.

Target: T1, CFTR (Homo sapiens, UniProt P13569, DEL508-508)
T1 construct: endogenous in cells; host or cells: primary human bronchial epithelial cells from CF subjects (F508del/MF-HBE), differentiated at air-liquid interface
Assay: HBE assay: Ussing chamber assay of CFTR-mediated short-circuit currents
Format: cell-based
Details: for EC50: read-out: HBE EC50; for activation at 10 µM: read-out: HBE Activity at 10 μM (%)
How it was run: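 CFTR-mediated Isc (μA/cm²) equals the peak response to apical 20 μM forskolin minus the residual after a 20 μM each BPO/GlyH-101/CFTR inhibitor 172 cocktail, recorded in Ussing chambers at Vhold 0 mV, 37 °C, pH 7.4, with 30 μM apical amiloride. Cells were F508del/MF HBE cultures preincubated 18-24 h with corrector (concentration range or 10 μM) plus 1 μM ivacaftor in 20% human serum.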

[1] = Table 10, read-out: HBE Max activity (%)
[2] = Table 12, read-out: HBE Max Activity (%)
[3] = Table 13, read-out: HBE Max Activity (%)

T1 sequence (P13569 with tags, fused parts or gaps DEL508-508): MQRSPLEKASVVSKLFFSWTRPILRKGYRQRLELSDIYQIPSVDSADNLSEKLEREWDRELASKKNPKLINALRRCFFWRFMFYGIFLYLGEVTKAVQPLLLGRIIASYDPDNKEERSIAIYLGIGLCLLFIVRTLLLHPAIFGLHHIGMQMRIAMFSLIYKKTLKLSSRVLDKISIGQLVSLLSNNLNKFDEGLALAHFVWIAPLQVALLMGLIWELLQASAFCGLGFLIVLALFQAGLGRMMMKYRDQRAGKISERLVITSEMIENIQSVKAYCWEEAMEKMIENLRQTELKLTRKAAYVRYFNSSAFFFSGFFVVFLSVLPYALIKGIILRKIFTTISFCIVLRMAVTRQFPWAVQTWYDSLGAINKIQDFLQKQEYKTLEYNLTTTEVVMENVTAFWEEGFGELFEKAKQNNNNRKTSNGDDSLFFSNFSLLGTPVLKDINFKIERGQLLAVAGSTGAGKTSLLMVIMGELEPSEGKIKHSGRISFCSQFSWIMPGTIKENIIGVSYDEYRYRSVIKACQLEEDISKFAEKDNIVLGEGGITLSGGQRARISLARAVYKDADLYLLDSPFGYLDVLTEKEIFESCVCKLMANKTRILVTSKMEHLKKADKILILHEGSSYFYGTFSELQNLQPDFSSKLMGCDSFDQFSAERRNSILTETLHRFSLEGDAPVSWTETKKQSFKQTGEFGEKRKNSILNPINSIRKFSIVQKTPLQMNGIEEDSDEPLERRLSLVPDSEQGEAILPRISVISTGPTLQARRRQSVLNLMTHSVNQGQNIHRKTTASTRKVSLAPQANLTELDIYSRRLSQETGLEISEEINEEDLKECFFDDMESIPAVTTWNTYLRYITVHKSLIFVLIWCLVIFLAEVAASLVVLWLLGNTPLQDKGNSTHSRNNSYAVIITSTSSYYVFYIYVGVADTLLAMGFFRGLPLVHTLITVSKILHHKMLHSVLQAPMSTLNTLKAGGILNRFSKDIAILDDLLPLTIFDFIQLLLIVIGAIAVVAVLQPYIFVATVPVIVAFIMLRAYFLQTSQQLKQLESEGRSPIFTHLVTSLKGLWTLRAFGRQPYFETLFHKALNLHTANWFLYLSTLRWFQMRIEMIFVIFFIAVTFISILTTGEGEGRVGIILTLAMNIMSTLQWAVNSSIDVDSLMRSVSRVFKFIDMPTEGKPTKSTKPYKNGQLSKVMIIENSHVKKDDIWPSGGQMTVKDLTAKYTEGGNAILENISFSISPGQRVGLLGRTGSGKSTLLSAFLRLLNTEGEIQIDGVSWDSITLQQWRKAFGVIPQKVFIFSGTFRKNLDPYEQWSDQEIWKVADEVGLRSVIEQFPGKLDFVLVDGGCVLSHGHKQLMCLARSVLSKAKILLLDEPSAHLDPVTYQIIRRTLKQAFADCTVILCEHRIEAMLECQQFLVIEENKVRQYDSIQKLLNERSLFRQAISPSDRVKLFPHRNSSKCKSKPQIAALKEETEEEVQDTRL

Cc1cccc(C)c1-c1cc2nc(n1)NS(=O)(=O)c1cccc(c1)C(=O)N(Cc1ccc(-c3cncnc3)cc1)[C@H](CC(C)(C)C)CO2 [Compound 144, (11R)-6-(2,6-dimethylphenyl)-11-(2,2-dimethylpropyl)-2,2-dioxo-12-[(4-pyrimidin-5-ylphenyl)methyl]-9-oxa-2λ^6-thia-3,5,12,19-tetrazatricyclo[12.3.1.14,8]nonadeca-1(18),4(19),5,7,14,16-hexaen-13-one]
EC50 (Table 10): < 1000 nM
Emax [1]: > 60%

Cc1cccc(C)c1-c1cc2nc(n1)NS(=O)(=O)c1cccc(c1)C(=O)N(Cc1ccc(-c3cnc(O)nc3)cc1)[C@H](CC(C)(C)C)CO2 [Compound 145, (11R)-6-(2,6-dimethylphenyl)-11-(2,2-dimethylpropyl)-12-[[4-(2-hydroxypyrimidin-5-yl)phenyl]methyl]-2,2-dioxo-9-oxa-2λ^6-thia-3,5,12,19-tetrazatricyclo[12.3.1.14,8]nonadeca-1(18),4(19),5,7,14,16-hexaen-13-one]
EC50 (Table 10): 1000 to 3000 nM
Emax [1]: > 60%

Cc1cccc(C)c1-c1cc2nc(n1)NS(=O)(=O)c1cccc(c1)C(=O)N(Cc1ccc(N3CC(=O)NC3=O)cc1)[C@H](CC(C)(C)C)CO2 [Compound 146, 1-[4-[[(11R)-6-(2,6-Dimethylphenyl)-11-(2,2-dimethylpropyl)-2,2,13-trioxo-9-oxa-2λ^6-thia-3,5,12,19-tetrazatricyclo[12.3.1.14,8]nonadeca-1(18),4(19),5,7,14,16-hexaen-12-yl]methyl]phenyl]imidazolidine-2,4-dione]
EC50 (Table 10): 1000 to 3000 nM
Emax [1]: > 60%

Cc1cccc(C)c1-c1cc2nc(n1)NS(=O)(=O)c1cccc(c1)C(=O)N(Cc1ccccc1-c1cn[nH]c1)[C@H](CC(C)(C)C)CO2 [Compound 147, (11R)-6-(2,6-dimethylphenyl)-11-(2,2-dimethylpropyl)-12-{[2-(1H-pyrazol-4-yl)phenyl]methyl}-9-oxa-2λ^6-thia-3,5,12,19-tetraazatricyclo[12.3.1.14,8]nonadeca-1(17),4,6,8(19),14(18),15-hexaene-2,2,13-trione]
EC50 (Table 10): < 1000 nM
Emax [1]: > 60%

Cc1cccc(C)c1-c1cc2nc(n1)NS(=O)(=O)c1cccc(c1)C(=O)N(Cc1cccc(N3CC(=O)NC3=O)c1)[C@H](CC(C)(C)C)CO2 [Compound 148, 1-[3-[[(11R)-6-(2,6-Dimethylphenyl)-11-(2,2-dimethylpropyl)-2,2,13-trioxo-9-oxa-2λ^6-thia-3,5,12,19-tetrazatricyclo[12.3.1.14,8]nonadeca-1(18),4(19),5,7,14,16-hexaen-12-yl]methyl]phenyl]imidazolidine-2,4-dione]
EC50 (Table 10): 1000 to 3000 nM
Emax [1]: > 60%

Cc1cccc(C)c1-c1cc2nc(n1)NS(=O)(=O)c1cccc(c1)C(=O)N(Cc1ncc(N3CC4(CCC4)C3)cn1)[C@H](CC(C)(C)C)CO2 [Compound 155, (11R)-12-[[5-(2-Azaspiro[3.3]heptan-2-yl)pyrimidin-2-yl]methyl]-6-(2,6-dimethylphenyl)-11-(2,2-dimethylpropyl)-2,2-dioxo-9-oxa-2λ^6-thia-3,5,12,19-tetrazatricyclo[12.3.1.14,8]nonadeca-1(18),4(19),5,7,14,16-hexaen-13-one]
EC50 (Table 12): < 1000 nM
Emax [2]: > 60%

Cc1cccc(C)c1-c1cc2nc(n1)NS(=O)(=O)c1cccc(c1)C(=O)N(Cc1ccc(C3CC(C)(C)CO3)cn1)[C@H](CC(C)(C)C)CO2 (stereo partly drawn) [Compound 156, (11R)-6-(2,6-Dimethylphenyl)-11-(2,2-dimethylpropyl)-12-[[5-(4,4-dimethyltetrahydrofuran-2-yl)-2-pyridyl]methyl]-2,2-dioxo-9-oxa-2λ6-thia-3,5,12,19-tetrazatricyclo[12.3.1.14,8]nonadeca-1(18),4(19),5,7,14,16-hexaen-13-one]
EC50 (Table 12): < 1000 nM
Emax [2]: > 60%

Cc1cccc(C)c1-c1cc2nc(n1)NS(=O)(=O)c1cccc(c1)C(=O)N(Cc1ccc(C3CC4(C3)CC(C)(C)C4)cn1)[C@H](CC(C)(C)C)CO2 [Compound 157, (11R)-6-(2,6-Dimethylphenyl)-11-(2,2-dimethylpropyl)-12-[[5-(2,2-dimethylspiro[3.3]heptan-6-yl)-2-pyridyl]methyl]-2,2-dioxo-9-oxa-2λ6-thia-3,5,12,19-tetrazatricyclo[12.3.1.14,8]nonadeca-1(18),4(19),5,7,14,16-hexaen-13-one]
EC50 (Table 13): < 1000 nM
Emax [3]: > 60%

Cc1cccc(C)c1-c1cc2nc(n1)NS(=O)(=O)c1cccc(c1)C(=O)N(Cc1ncc(C3CC(C)(C)C3)cn1)[C@H](CC(C)(C)C)CO2 [Compound 158]
EC50 (Table 13): < 1000 nM
Emax [3]: > 60%

Cc1cccc(C)c1-c1cc2nc(n1)NS(=O)(=O)c1cccc(c1)C(=O)N(Cc1ccc(C3CC(C)(C)C3)cn1)[C@H](CC(C)(C)C)CO2 [Compound 159]
EC50 (Table 13): < 1000 nM
Emax [3]: > 60%

Cc1cccc(C)c1-c1cc2nc(n1)NS(=O)(=O)c1cccc(c1)C(=O)N(Cc1ncc(C3CC4(CCC4)C3)cn1)[C@H](CC(C)(C)C)CO2 [Compound 160]
EC50 (Table 13): < 1000 nM
Emax [3]: > 60%

Cc1cccc(C)c1-c1cc2nc(n1)NS(=O)(=O)c1cccc(c1)C(=O)N(Cc1ncc(C3CC4(COC4)C3)cn1)[C@H](CC(C)(C)C)CO2 [Compound 161]
EC50 (Table 13): < 1000 nM
Emax [3]: > 60%

Cc1cccc(C)c1-c1cc2nc(n1)NS(=O)(=O)c1cccc(c1)C(=O)N(Cc1ncc(C3CC4(C3)CC(C)(C)C4)cn1)[C@H](CC(C)(C)C)CO2 [Compound 162]
EC50 (Table 13): < 1000 nM
Emax [3]: > 60%

Cc1cccc(C)c1-c1cc2nc(n1)NS(=O)(=O)c1cccc(c1)C(=O)N(Cc1ccc(C3CC4(CCC4)C3)cn1)[C@H](CC(C)(C)C)CO2 [Compound 163]
EC50 (Table 13): 1000 to 3000 nM
Emax [3]: > 60%

Cc1cccc(C)c1-c1cc2nc(n1)NS(=O)(=O)c1cccc(c1)C(=O)N(Cc1ccc(C3CC4(COC4)C3)cn1)[C@H](CC(C)(C)C)CO2 [Compound 164]
EC50 (Table 13): < 1000 nM
Emax [3]: > 60%

Cc1cccc(C)c1-c1cc2nc(n1)NS(=O)(=O)c1cccc(c1)C(=O)N(CC(=O)N1CCC3(CCC3)C1)[C@H](CC(C)(C)C)CO2 [Compound 165]
activation at 10 µM (Table 13): > 600%

Cc1cccc(C)c1-c1cc2nc(n1)NS(=O)(=O)c1cccc(c1)C(=O)N(CC(=O)NCCN1CCOCC1)[C@H](CC(C)(C)C)CO2 [Compound 166]
activation at 10 µM (Table 12): > 600%

Cc1cccc(C)c1-c1cc2nc(n1)NS(=O)(=O)c1cccc(c1)C(=O)N(Cc1nc(C(C)(C)C)co1)[C@H](CC(C)(C)C)CO2 [Compound 167]
activation at 10 µM (Table 12): > 600%

Cc1cccc(C)c1-c1cc2nc(n1)NS(=O)(=O)c1cccc(c1)C(=O)N(CC(=O)N1Cc3ccccc3C1)[C@H](CC(C)(C)C)CO2 [Compound 168]
activation at 10 µM (Table 13): > 600%

Cc1cccc(C)c1-c1cc2nc(n1)NS(=O)(=O)c1cccc(c1)C(=O)N(CC(=O)N1CCCC3(CCC3)C1)[C@H](CC(C)(C)C)CO2 [Compound 169]
activation at 10 µM (Table 13): > 600%

Cc1cccc(C)c1-c1cc2nc(n1)NS(=O)(=O)c1cccc(c1)C(=O)N(CC(=O)N1CC3(CCC3)C1)[C@H](CC(C)(C)C)CO2 [Compound 170]
activation at 10 µM (Table 13): 30 to 60%

Cc1cccc(C)c1-c1cc2nc(n1)NS(=O)(=O)c1cccc(c1)C(=O)N(CC(=O)NC1CC3(CCC3)C1)[C@H](CC(C)(C)C)CO2 [Compound 171]
activation at 10 µM (Table 13): > 600%

Cc1cccc(C)c1-c1cc2nc(n1)NS(=O)(=O)c1cccc(c1)C(=O)N(CC(=O)N(C)C1CCC(C)(C)CC1)[C@H](CC(C)(C)C)CO2 [Compound 172]
activation at 10 µM (Table 13): > 600%
